Laboratory results as given in patent US20230095021A1, “MODULATORS OF TDP-43” (Alteron Therapeutics, Inc., priority 2019, published 2023).

Assays:
Beta-secretase 1 (BACE1) = assay: BACE1 protein level, Western blot in U-87 MG cells; assay type: cell-based; conditions: 2 days
Experimental: (§1) U-87 MG and T98G cells were maintained at 37° C. in a CO2 incubator in Dulbecco's Modified Eagle's Medium (DMEM) supplemented with 10% fetal bovine serum (FBS) and 1% of penicillin/streptomycin (Invitrogen). Cells were treated with DMSO, 3 μM, or 6 μM ALT-59 for 2 days and subjected to Western blotting analysis using the indicated antibodies. Protein bands were quantified using the ImageJ software.

TDP-43 = target: T1, TDP-43 (Homo sapiens, UniProt Q13148); assay: Solid phase compound-protein complex pull-down with mass spectrometry protein identification; assay type: binding; conditions: precipitated proteins from PLC/PRF/5 and MDA-MB-231 cell lysates
T1 construct: added to whole cell lysate containing 5 mg protein; endogenous in cells; host or cells: MDA-MB-231 and PLC/PRF/5 whole cell lysates
T1 sequence (Q13148 whole entry): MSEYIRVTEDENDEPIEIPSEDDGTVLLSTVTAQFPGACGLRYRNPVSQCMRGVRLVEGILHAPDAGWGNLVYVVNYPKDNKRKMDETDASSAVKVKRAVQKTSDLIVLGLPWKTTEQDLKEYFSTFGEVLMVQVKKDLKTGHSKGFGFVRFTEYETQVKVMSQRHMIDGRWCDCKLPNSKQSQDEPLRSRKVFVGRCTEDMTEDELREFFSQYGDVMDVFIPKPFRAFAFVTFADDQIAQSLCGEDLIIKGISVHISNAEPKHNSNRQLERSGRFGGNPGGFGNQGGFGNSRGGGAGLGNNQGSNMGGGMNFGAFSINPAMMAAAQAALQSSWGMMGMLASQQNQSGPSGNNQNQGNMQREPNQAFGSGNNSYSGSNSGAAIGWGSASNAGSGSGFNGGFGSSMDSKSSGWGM
Experimental: MDA-MB-231 and PLC/PRF/5 cells were maintained at 37° C. in a CO2 incubator in Dulbecco's Modified Eagle's Medium (DMEM) supplemented with 10% fetal bovine serum (FBS) and 1% of penicillin/streptomycin (Invitrogen).
The cells were lysed in lysis buffer containing 20 mM 4-(2-hydroxyethyl)-1-piperazineethanesulfonic acid (HEPES), pH 7.5, 0.3% 3-[(3-cholamidopropyl)dimethylammonio]-1-propanesulfonate (CHAPS), 150 mM NaCl, (Sigma-Aldrich), and protease inhibitor cocktail (Roche) with rotation at 4° C. for one hour followed by centrifugation at 15000 for 20 minutes. Ten milligrams of ALT-59 dissolved in DMSO at 20 mM were added to whole cell lysate containing 5 mg protein and incubated on ice for one hour. Compound precipitates out due to high hydrophobicity. Compound-protein complex were spun down at 1000 rpm and washed 5 times with lysis buffer to remove unbound protein. The compound-protein complex were boiled in SDS-PAGE protein sample buffer (1×) (80 mM Tris-HCl, pH 6.8, 2% SDS, 10% Glycerol, 0.1% Bromophenol blue.
For silver staining, proteins were separated on a 10% SDS-PAGE gel. To prepare samples for protein identification using mass spectrometry, protein samples were run into stacking gel and the electrophoresis was stopped after samples were compressed into single bands. […]

MAP2 = MAP2 expression, Western blot in U-87 MG cells; assay type: cell-based; conditions: 2 days
Experimental: as §1

Phe508del-CFTR = Phe508del-CFTR localization, immunofluorescence microscopy, primary bronchial epithelial cells of a cystic fibrosis patient; assay type: cell-based, human; conditions: primary bronchial epithelial cells homozygous for Phe508del-CFTR, 4 μM, 3 days
Experimental: (§2) MDA-MB-231 and U-87 MG cells were cultured on cover slips under the conditions as described above. Cells were treated with DMSO or 4 μM ALT-59 for 3 days. Primary human bronchial epithelial cells isolated from cystic fibrosis patient homozygous for Phe508del-CFTR (Lifeline Cell Technology) were cultured on cover slips in BronchiaLife Cell Culture Medium supplemented with BrochiaLife LifeFactors Kit (Lifeline Cell Technology) and maintained at 37° C. in a CO2 incubator. Cells were treated with DMSO, 4 μM ALT-59, 2 μM ALT-308, or 4 μM ALT-410 for 3 days.
(§3) Cells were fixed in 4% paraformaldehyde for 15 minutes and permeabilized in 0.1% Triton X-100 for 2 minutes. After being blocked in 5% BSA (Sigma-Aldrich), cells were incubated with anti-CFTR antibody (Alomone Labs) followed by Alexa Fluor 488 anti-rabbit secondary antibody. Reagents were buffered in GIBCO PBS (Phosphate-Buffered Saline). Images were taken using Carl Zeiss LSM 510 Laser Scanning Microscope. Parameters were set identical for all images.

POLDIP3 exon 3 = POLDIP3 exon 3 splicing, RT-PCR; assay type: cell-based; conditions: MDA-MB-231 cells
Experimental: (§4) Long stretches of TG repeats are found in exon 9 and intron 9 of Lamp2 gene. A shorter stretch is located in intron 10. […] RT-PCR analysis was performed to test if ALT-59 treatment affects LAMP2 alternative splicing. MDA-MB-231 cells were cultured as described above and treated with DMSO or 6 μM ALT-59. Total RNA was extracted using the RNeasy Mini Kit (Qiagen) and equal amount of RNA was reverse transcribed using the SuperScript III First-Strand Synthesis System (Invitrogen). PCR reactions were performed using forward primer located on exon 1 and a reverse primer located on exon 11. PCR samples were resolved in a 1.2% agarose gel and stained with ethidium bromide.
(§5) It has been reported that TDP-43 causes CFTR exon 9 skipping, ApoA2 exon 3 skipping, and POLDIP3 exon 3 inclusion. Additional experiments were performed to further confirm that TDP-43 is the target of ALT-59. RT-PCR analysis was performed as described above using the following primers for the three genes. PCR samples were analyzed by polyacrylamide gel electrophoresis and stained with ethidium bromide.

[1] = tested on: transgenic C. elegans expressing full-length (wild-type) human TDP-43; assay: Paralysis caused by hTDP-43 expression in C. elegans; assay type: in vivo; conditions: 10 μM ALT-59 in NGM plates
Experimental: Wild-type N2 strain or transgenic C. elegans expressing full-length (wild-type) human TDP-43 (strain number, CL6049, Caenorhabditis Genetics Center, Minneapolis, Minn.) were placed on freshly prepared Nematode Growth Medium (NGM) petri plates with or without 10 μM ALT-59.
Uncoordinated phenotypes were imaged, and movement deficits were quantified by counting body thrashes in liquid after recording under an inverted microscope.

CFTR exon 9 = CFTR exon 9 splicing, RT-PCR; assay type: cell-based; conditions: MDA-MB-231 cells
Experimental: as §4, §5

BACE1 = assay: Screening for ALT-59 derivatives with BACE1 protein levels as indicator, U-87 MG cells; assay type: cell-based; conditions: 2 days, concentrations as indicated in FIGS. 15-17
Experimental: Additional experiments were performed to screen for compounds with higher potency and the ability to penetrate blood brain barrier using BACE1 protein levels as an indicator. U-87 MG cells were cultured as described previously and treated for 2 days with compounds at concentrations as indicated in FIGS. 15-17. Cells were then subjected to Western blotting analysis using anti-BACE1 and anti-beta-actin antibodies.

CFTR = CFTR localization, immunofluorescence microscopy, MDA-MB-231 cells; assay type: cell-based; conditions: 4 μM, 3 days
Experimental: as §2, §3

## CN(C)c1ccc(C2Nc3ccc4ccccc4c3C3=C2C(=O)CC(C)(C)C3)cc1Br (stereo not drawn) [ALT-59, 5-(3-bromo-4-(dimethylamino)phenyl)-2,2-dimethyl-2,3,5,6-tetrahydrobenzo[a]phenanthridin-4(1H)-one]
Beta-secretase 1 (BACE1); 3 μM
  reduction of BACE1 protein level: 20%
Beta-secretase 1 (BACE1); 6 μM
  reduction of BACE1 protein level: 50%
TDP-43
  ALT-59 binding proteins identified by mass spectrometry: TDP-43 (boxed) was ranked as the top hit
MAP2; 3 μM
  increase of MAP2 expression: 1.42 folds
MAP2; 6 μM
  increase of MAP2 expression: 2.51 folds
Phe508del-CFTR
  localization of Phe508del-CFTR on the plasma membrane: increased localization of Phe508del-CFTR on the plasma membrane
POLDIP3 exon 3
  splicing of POLDIP3 exon 3: remain unchanged
[1]
  coiled body posture and uncoordinated phenotype: rescued the coiled body posture and uncoordinated phenotype
[1]; without treatment 93%
  percentage of paralysis: 29.5%
CFTR exon 9
  CFTR exon 9 inclusion: capable of promoting CFTR exon 9 inclusion
BACE1
  BACE1 protein expression: capable of lowering BACE1 expression
CFTR
  CFTR localization: redistribution of CFTR from the perinuclear region to the plasma membrane
